Test results reported in patent US20260217767A1, “NOVEL A4B7 THIOETHER PEPTIDE DIMER ANTAGONISTS” (Protagonist Therapeutics, Inc., priority 2014, published 2026).
Where a SMILES comes first, the peptide text is derived from it.

Key:
[1] = Simulated Intestinal Fluid (SIF) Stability Assay; assay type: in vitro ADME; conditions: simulated gi fluid, porcine pancreatin
Outline: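 Peptide at 22 μM final was incubated at 37° C in blank FaSSIF pH 6.5 with 1% porcine pancreatin. Timed samples were quenched in acetonitrile/methanol/formic acid with internal standard and analysed by LC-MS/MS. Half-lives came from first-order exponential fits of percent remaining.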

[2] = Dithiothreitol (DTT) Redox Stability Assay; assay type: physicochemical; conditions: 0.5 mM DTT, room temperature; control peptide monomers, Table 8
Protocol: Studies were carried out under redox conditions to evaluate intestinal stability of the peptide molecules of the instant invention.
Dithiothreitol (DTT) Redox Stability Assay
The DTT stability assay was prepared by adding 5 μl of a 10 mM peptide stock solution in DMSO to 1 ml of 100 mM Tris-Cl, pH 7.5 (final peptide concentration is 50 μM). At time 0 min, 5 μl of a freshly thawed 100 mM DTT solution was added such that the final DTT concentration is 0.5 mM. The reactions were incubated at room temperature. At different time points up to 120 minutes, 50 μl aliquots were removed and the reaction was quenched by adding 10 ul of 5M acetic acid. To measure disappearance of the parent peptide, the quenched samples (30 μl) were analyzed by reverse phase HPLC and UV absorbance at 220 nm. Half-lives were calculated by fitting to a first-order exponential decay equation using Excel.

[3] = system: CD4+/CD45RO+ memory T cells; experiment: PBMC Memory T Cell Adhesion Assay; assay type: cell-based, human
Protocol: PBMC Memory T Cell Adhesion Assay
Fresh CD4+/CD45RO+ memory T cells were isolated from human peripheral blood mononuclear cell (PBMC) donors by Aragen Bioscience Inc. (Morgan Hill, CA). The assay plate was prepared using IgG Fc capture antibody (donkey anti human) immobilized at 500 ng/well in 50 mM sodium bicarbonate buffer, pH 9.5, ON, 4 C onto a Greiner Fluotrac plate (100 ul per well). The plate was rinsed two time with Blocking Buffer (25 mM Tris HCl, pH7.5, 150 mM NaCl, 1.5% BSA, 0.05% Tween), and blocked with Blocking Buffer for 2 hours at 37 C or 5 hours at RT using 200 ul per well. The Blocking Buffer was removed and either MAdCAM-1 or VCAM-1 at 400 ng/well in Blocking Buffer was added and the plate incubated overnight at 4 C (100 ul per well). The plate was washed two times with Blocking Buffer, and rinsed once with 200 ul Binding Media (DMEM phenol red free, 10 mM HEPES, 1×Na pyruvate, 1× Glutamine, and supplemented with 1 mM MnC12 prior to use). To prepare cells, approximately 25 million CD4+/CD45RO+ memory T cells were counted by trypan blue exclusion using a haemocytometer to determine viability and cell count. The cells were transferred to a 50 ml conical tube, and centrifuged at 1200 rpm for 10 minute. The media was aspirated and the cell pellet resuspended in 15 ml Binding Media. The cells were centrifuged again and resuspended in the appropriate amount of Binding Media to be used for assays (50 ul of cells per well at 2× the final density). To each well, and equal volume (50 ul) of test compound was added and the plate was incubated for 1.5 hours at 37 C, 5% CO2. Each well was rinsed 3× with 150 ul per well of Binding Media. […] The plate was incubated at 37 C, 5% CO2, for 45 minutes. The plate was protected from light by using black adhesive seals. Fluorescence intensity was measured using a Molecular Devices Gemini EM Fluorescent Plate Reader (Ex 485/Em530, Bottom Read, Reading Sensitivity=20). IC50 curves are generated using Graph Pad Prism and the curves analyzed using analyzed using a non-linear regression (four parameters) algorithm. The log (concentration) versus RFU (Ex485/Em530) was plotted to determine IC50 values.

[4] = biological target: T1, RPMI 8866 cells (Homo sapiens, UniProt P13612+P26010); experiment: α4β7-MAdCAM Cell Adhesion Assay; assay type: cell-based; conditions: thioether peptide dimers, Table 7; read-out: Cell-Adhesion A4B7
T1 sequence (P13612 34-1032): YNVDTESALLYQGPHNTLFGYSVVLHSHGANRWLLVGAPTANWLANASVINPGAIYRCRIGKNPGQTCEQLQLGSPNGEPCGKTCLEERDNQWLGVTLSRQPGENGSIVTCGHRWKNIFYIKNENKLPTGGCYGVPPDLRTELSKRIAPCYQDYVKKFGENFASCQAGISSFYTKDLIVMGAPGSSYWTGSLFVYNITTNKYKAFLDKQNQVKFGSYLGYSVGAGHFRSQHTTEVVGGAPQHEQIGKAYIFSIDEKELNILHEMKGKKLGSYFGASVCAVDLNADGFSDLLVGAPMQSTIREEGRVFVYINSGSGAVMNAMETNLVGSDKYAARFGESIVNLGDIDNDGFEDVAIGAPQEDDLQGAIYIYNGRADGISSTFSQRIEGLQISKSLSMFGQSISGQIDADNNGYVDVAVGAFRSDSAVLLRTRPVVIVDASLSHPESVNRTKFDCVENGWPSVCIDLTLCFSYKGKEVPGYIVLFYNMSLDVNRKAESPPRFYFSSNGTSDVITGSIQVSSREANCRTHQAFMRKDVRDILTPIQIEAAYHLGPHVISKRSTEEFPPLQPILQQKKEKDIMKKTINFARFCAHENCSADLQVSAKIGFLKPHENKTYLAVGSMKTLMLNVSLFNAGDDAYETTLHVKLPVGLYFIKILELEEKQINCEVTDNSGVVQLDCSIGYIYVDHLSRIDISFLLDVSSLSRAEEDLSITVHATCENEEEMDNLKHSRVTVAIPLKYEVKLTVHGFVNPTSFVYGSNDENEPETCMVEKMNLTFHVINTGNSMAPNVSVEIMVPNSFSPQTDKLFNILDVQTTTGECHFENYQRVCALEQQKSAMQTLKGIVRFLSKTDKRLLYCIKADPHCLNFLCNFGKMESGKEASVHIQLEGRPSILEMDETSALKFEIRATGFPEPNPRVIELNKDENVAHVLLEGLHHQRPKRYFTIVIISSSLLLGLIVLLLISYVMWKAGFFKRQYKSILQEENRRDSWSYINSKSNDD
T1 sequence (P26010 20-798): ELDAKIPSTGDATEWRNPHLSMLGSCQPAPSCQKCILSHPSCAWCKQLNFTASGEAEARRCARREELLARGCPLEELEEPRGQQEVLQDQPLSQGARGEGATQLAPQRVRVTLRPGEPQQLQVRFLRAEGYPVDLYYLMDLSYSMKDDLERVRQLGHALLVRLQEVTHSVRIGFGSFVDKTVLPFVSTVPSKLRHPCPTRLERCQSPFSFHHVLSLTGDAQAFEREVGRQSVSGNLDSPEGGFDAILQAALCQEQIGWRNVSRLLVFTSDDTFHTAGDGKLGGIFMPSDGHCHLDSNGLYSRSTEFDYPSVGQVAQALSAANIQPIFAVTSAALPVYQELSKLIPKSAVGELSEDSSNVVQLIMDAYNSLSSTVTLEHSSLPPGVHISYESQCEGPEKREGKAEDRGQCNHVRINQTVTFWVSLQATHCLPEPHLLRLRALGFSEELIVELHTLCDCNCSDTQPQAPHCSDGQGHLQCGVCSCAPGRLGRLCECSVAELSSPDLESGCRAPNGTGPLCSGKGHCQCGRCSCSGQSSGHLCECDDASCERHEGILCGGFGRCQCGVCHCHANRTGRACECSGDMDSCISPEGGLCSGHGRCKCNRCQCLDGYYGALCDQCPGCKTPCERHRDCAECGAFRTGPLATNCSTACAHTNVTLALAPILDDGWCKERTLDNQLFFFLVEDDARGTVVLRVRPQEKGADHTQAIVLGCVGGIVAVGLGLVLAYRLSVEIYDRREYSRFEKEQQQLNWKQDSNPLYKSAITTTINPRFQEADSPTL
Outline: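 RPMI 8866 cells (200,000/well) in DMEM with 1 mM MnCl2 and 0.1% BSA were allowed to adhere 30-45 min at 37° C to plates coated with rh MAdCAM-1/Fc (200 ng/well) in presence of serially diluted peptide. After washing, bound cells quantified by MTT, absorbance 570 nm, cell-free background subtracted.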

[5] = Simulated Gastric Fluid (SGF) Stability Assay; assay type: in vitro ADME; conditions: simulated gi fluid; porcine pepsin, pH 2, 37° C.; dimers, Table 7
Protocol: Simulated Gastric Fluid (SGF) Stability Assays
Studies were carried out in simulated gastric fluid (SGF) to evaluate intestinal stability of the peptide molecules of the instant invention. SGF was prepared by adding 20 mg NaCl, 32 mg porcine pepsin (MP Biochemicals, catalog 02102599), and 70 μl HCl to 10 ml water (final pH=2). Aliquots of SGF (0.5 ml each) were pre-warmed at 37° C. To start the reaction, 1 μl of peptide stock solution (10 mM in DMSO) was added to 0.5 ml SGF and thoroughly mixed such that the final peptide concentration was 20 μM. The reactions were incubated at 37° C. with gentle shaking. At each time point (0, 15, 30, 60 min) 50 μl aliquots were removed and added to 200 μl acetonitrile containing 0.1% formic acid to quench the reaction. Samples are stored at 4° C. until the end of the experiment and centrifuged at 10,000 rpm for 5 minutes. Aliquots of the supernatant were removed, diluted 1:1 into distilled water containing internal standard, and analyzed by LCMS/MS. Percent remaining at each timepoint was calculated based on the peak area response ratio of test to compound to internal standard. Time 0 was set to 100%, and all later timepoints were calculated relative to time 0. Half-lives were calculated by fitting to a first-order exponential decay equation using GraphPad.

[6] = control peptide monomers, Table 8
[7] = thioether peptide dimers, Table 7

SMILES	half-life [1, 6] [h]	Redox stability (DTT) [2] [min]	IC50 [3, 7] [nM]	also measured
CC(=O)N[C@H]1CSSC[C@@H](C(N)=O)NC(=O)[C@H](CC(C)C)NC(=O)[C@H]([C@@H](C)O)NC(=O)[C@H](CC(=O)O)NC(=O)[C@H](CO)NC(=O)[C@H](CCCNC(=N)N)NC1=O [compound 386] (HELM PEPTIDE1{[ac].C.R.S.D.T.L.C.[am]}$PEPTIDE1,PEPTIDE1,2:R3-8:R3$$$V2.0; bridges inferred)	< 0.0167	~3		
CC(C)C[C@@H]1NC(=O)[C@H]([C@@H](C)O)NC(=O)[C@H](CC(=O)O)NC(=O)[C@H](CO)NC(=O)[C@H](CCCNC(=N)N)N(C)C(=O)c2ccccc2CSC(C)(C)[C@@H](C(=O)N[C@@H](Cc2c[nH]c3ccccc23)C(=O)N[C@H](CCC(=O)O)C(N)=O)NC1=O [compound 98] (HELM PEPTIDE1{[meR].S.D.T.L.[Pen].W.[dE].[am]}|CHEM1{[O=C(c1ccccc1C[*:2])[*:1]]}$PEPTIDE1,CHEM1,1:R1-1:R1|PEPTIDE1,CHEM1,6:R3-1:R2$$$V2.0)				IC50 ([3]; thioether monomer peptides, Table 6): 100 to 1000 nM
CC(C)C[C@@H]1NC(=O)[C@H]([C@@H](C)O)NC(=O)[C@H](CC(=O)O)NC(=O)[C@H](CO)NC(=O)[C@H](CCCNC(=N)N)N(C)C(=O)c2ccccc2CSC(C)(C)[C@@H](C(=O)N[C@@H](Cc2ccc(C(C)(C)C)cc2)C(=O)N[C@@H](CCC(=O)O)CC(=O)N[C@H](CCCCN)C(N)=O)NC1=O [compound 222]			< 25	IC50 [4]: < 25 nM
CC(C)C[C@@H]1NC(=O)[C@H]([C@@H](C)O)NC(=O)[C@H](CC(=O)O)NC(=O)[C@H](CO)NC(=O)[C@H](CCCNC(=N)N)N(C)C(=O)c2ccccc2CSC(C)(C)[C@@H](C(=O)N[C@@H](Cc2ccccc2)C(=O)N[C@H](CCC(=O)O)C(=O)N[C@H](CCCCN)C(N)=O)NC1=O [compound 155] (HELM PEPTIDE1{[meR].S.D.T.L.[Pen].F.[dE].[dK].[am]}|CHEM1{[O=C(c1ccccc1C[*:2])[*:1]]}$PEPTIDE1,CHEM1,1:R1-1:R1|PEPTIDE1,CHEM1,6:R3-1:R2$$$V2.0)			25 to 100	half-life ([1]; 37° C., dimers, Table 7): > 3 h; half-life [5]: > 3 h
CC(=O)N[C@H]1CSSC[C@@H](C(=O)NCC(=O)N[C@@H](CCC(=O)O)C(N)=O)NC(=O)[C@H](CC(C)C)NC(=O)[C@H]([C@@H](C)O)NC(=O)[C@H](CC(=O)O)NC(=O)[C@H](CO)NC(=O)[C@H](CCCNC(=N)N)NC1=O [compound 385] (HELM PEPTIDE1{[ac].C.R.S.D.T.L.C.G.E.[am]}$PEPTIDE1,PEPTIDE1,2:R3-8:R3$$$V2.0; bridges inferred)	< 0.0167	~3		
